Data reported in article PMC9995496, “A screen for MeCP2-TBL1 interaction inhibitors using a luminescence-based assay” (Scientific Reports, 2023).
Counter-ions that a name gives are not always drawn. Like-named read-outs stand apart in the source and are kept apart here.

System: PRKACA-PRKAR2A interaction (SmBiT-PRKACA / LgBiT-PRKAR2A), protein kinase A
Set-up: NanoLuc complementation counter-screen in cell extract, PRKACA with PRKAR2A, loss of luminescence, detects NanoLuc interference
Settings: 0.5 h, 20 µM, inhibitor
[1] = counter-screen for NanoLuc interference

| Inh (PKA) [1] | Structure (SMILES) | further results |
| --- | --- | --- |
| 4.726% | Cc1cc(C)nc(NC(=S)N2CCN(Cc3ccc(C(F)(F)F)cc3)CC2)c1 [UM0142833:01, NCT-503] | – |
| 5.197% | O=C(CCCCCCC(=O)Nc1ccc(I)cc1)NO [UM0142835:01, 4-iodo-SAHA] | – |
| -0.3283% | CCCCCCCCCc1ccc(B(O)O)cc1 [UM0142836:01, 4-(n-nonyl) Benzeneboronic Acid] | – |
| 0.1553% | Cc1snnc1-c1ccccc1 [UM0142838:01, 4-phenyl-5-methyl-1,2,3-Thiadiazole] | – |
| 40.56% | CC(C)(C)C(O)/C(=C\c1ccc(Cl)cc1)n1cncn1 (centres unmarked) [UM0142839:01, Uniconazole] | – |
| 1.888% | CC(=O)O[C@H]1C[C@@]2(C)[C@@H](C[C@@H](O)[C@H]3[C@@]4(C)CC[C@@H](O)[C@@H](C)[C@@H]4CC[C@@]32C)/C1=C(\CCC=C(C)C)C(=O)O [UM0142840:01, Fusidic Acid (sodium salt)] | – |
| -0.4642% | COc1cc(/C=C/CO)cc(OC)c1O[C@@H]1O[C@H](CO)[C@@H](O)[C@H](O)[C@H]1O [UM0142842:01, Syringin] | – |
| 9.304% | C[C@H]1[C@H](C)CC[C@]2(C(=O)O)CC[C@]3(C)C(=CC[C@@H]4[C@@]5(C)C[C@@H](O)[C@H](O)[C@@](C)(CO)[C@@H]5CC[C@]43C)[C@H]12 [UM0142843:01, Asiatic acid] | – |
| -0.7873% | C[C@H]1[C@H](C)CC[C@]2(C(=O)O[C@@H]3O[C@H](CO[C@@H]4O[C@H](CO)[C@@H](O[C@@H]5O[C@H](C)[C@H](O)[C@@H](O)[C@H]5O)[C@H](O)[C@H]4O)[C@@H](O)[C@H](O)[C@H]3O)CC[C@]3(C)C(=CC[C@@H]4[C@@]5(C)C[C@@H](O)[C@H](O)[C@@](C)(CO)[C@@H]5CC[C@]43C)[C@H]12 [UM0142844:01, Asiaticoside] | – |
| 6.247% | O=C1C[C@@H](c2ccc(O)cc2)Oc2cc(O)cc(O)c21 [UM0142845:01, Naringenin] | – |
| 12.37% | C=C1CC[C@@H]2[C@](C)(CO)[C@H](O)CC[C@@]2(C)[C@H]1C/C=C1\C=COC1=O [UM0142846:01, Dehydroandrographolide] | – |
| 1.08% | OC[C@H]1NC[C@H](O)[C@@H](O)[C@@H]1O [UM0142849:01, 1-Deoxynojirimycin] | – |
| 5.283% | C[C@H](CCC(=O)O)[C@H]1CC[C@H]2[C@@H]3CC[C@@H]4C[C@H](O)CC[C@]4(C)[C@H]3C[C@H](O)[C@]12C [UM0142850:01, Deoxycholic acid] | – |
| 36.22% | O=C(O)c1cc(O)c2c(c1)[C@@H]([C@H]1c3cc(C(=O)O)cc(O)c3C(=O)c3c(O[C@@H]4O[C@H](CO)[C@@H](O)[C@H](O)[C@H]4O)cccc31)c1cccc(O[C@@H]3O[C@H](CO)[C@@H](O)[C@H](O)[C@H]3O)c1C2=O [UM0142851:01, Sennoside B] | – |
| 33.8% | O=C(O)c1cc(O)c2c(c1)[C@H]([C@H]1c3cc(C(=O)O)cc(O)c3C(=O)c3c(O[C@@H]4O[C@H](CO)[C@@H](O)[C@H](O)[C@H]4O)cccc31)c1cccc(O[C@@H]3O[C@H](CO)[C@@H](O)[C@H](O)[C@H]3O)c1C2=O [UM0142852:01, Sennoside A] | – |
| 0.1421% | C[C@H]1[C@@H](O)O[C@@H]2O[C@@]3(C)CC[C@H]4[C@H](C)CC[C@@H]1[C@@]24OO3 [UM0142853:01, Dihydroartemisinin] | – |
| 4.863% | CC1(C)[C@@H](O[C@H]2O[C@H](C(=O)O)[C@@H](O)[C@H](O)[C@H]2O[C@@H]2O[C@H](C(=O)O)[C@@H](O)[C@H](O)[C@H]2O)CC[C@]2(C)[C@H]3C(=O)C=C4[C@@H]5C[C@@](C)(C(=O)O)CC[C@]5(C)CC[C@@]4(C)[C@]3(C)CC[C@@H]12 [UM0142854:01, Glycyrrhizic acid] | – |
| 0.9672% | O=C1c2c(O)cc(O)cc2O[C@H](c2ccc(O)c(O)c2)[C@H]1O [UM0142856:01, Taxifolin] | – |
| 27.32% | Cc1coc2c1C(=O)C(=O)c1c-2ccc2c(C)cccc12 [UM0142857:01, Tanshinone I] | – |
| 4.571% | O=C1c2c(O)cc(O)cc2O[C@H](c2cc(O)c(O)c(O)c2)[C@H]1O [UM0142858:01, Dihydromyricetin] | – |

Second part, the compound before the results:

| Structure (SMILES) | Inh (PKA) [1] | further results |
| --- | --- | --- |
| CN(C)CCCC1(c2ccc(F)cc2)OCc2cc(C#N)ccc21 (centres unmarked) [UM0142779:01, Citalopram hydrobromide] | 0.9875% | – |
| Nc1ncnc2c1ncn2C1CCCO1 (centres unmarked) [UM0142780:01, SQ 22536] | -2.134% | – |
| O=C1OC2(c3ccccc31)c1ccc(O)c(O)c1Oc1c2ccc(O)c1O [UM0142786:01, Gallein] | 24.58% | – |
| C[C@H](NC(=O)c1sccc1OCc1ccc(Cl)cc1)c1ccccc1 [UM0142788:01, AS 1949490] | 58.85% | – |
| N[C@@H]1C[C@H]1c1ccccc1 [UM0142789:01, Tranylcypromine hydrochloride] | -0.9566% | – |
| COc1ccc(C[C@H](N)C(=O)N[C@H]2[C@@H](O)[C@H](n3cnc4c(N(C)C)ncnc43)O[C@@H]2CO)cc1 [UM0142790:01, Puromycin dihydrochloride] | -1.723% | – |
| C=CCNc1ncnc2ccc(Br)cc12 [UM0142792:01, SMER 28] | 2.149% | – |
| CC(C)(C)c1ccc(S(=O)(=O)NCc2ccc(C(=O)Nc3cccnc3)cc2)cc1 [UM0142793:01, STF 31] | 3.916% | – |
| O=C(O)[C@@]1(CCCCCCOc2ccc(Cl)cc2)CO1 [UM0142794:01, (R)-(+)-Etomoxir sodium salt] | 1.565% | – |
| CC(C(=O)O)C(=O)O [UM0142795:01, Methylmalonate] | – | Inh (PKA): -2.942 |
| COc1nccnc1NS(=O)(=O)c1ccc(NC(=O)/C=C/c2ccc([N+](=O)[O-])s2)cc1 [UM0142796:01, Necrosulfonamide] | 27.6% | – |
| COc1cc2c(NC3CCN(C(C)C)CC3)nc(N3CCC(F)(F)CC3)nc2cc1OCCCN1CCCC1 [UM0142799:01, UNC 0642] | 0.7014% | – |
| COc1ccc(N(C)c2nc(C)nc3ccccc23)cc1 [UM0142800:01, MPC 6827 hydrochloride] | 22.54% | – |
| CCc1c(-c2ccccc2)c(-c2ccccc2)nn1-c1ccccc1-c1cccc(OCC(=O)O)c1 [UM0142801:01, BMS 309403] | 85.65% | – |
| Nc1nccc(Oc2ccc3c(C(=O)Nc4cccc(C(F)(F)F)c4)cccc3c2)n1 [UM0142802:01, BAW2881 (NVP-BAW2881)] | 7.673% | – |
| C[C@@H]1CC(=O)Nc2cccc(-c3ccc4c(c3)c(-c3cnn(C)c3)nn4C)c2N1 [UM0142803:01, CPI-637] | 3.742% | – |
| Cc1ccc(C(=O)OCc2ccc([C@@H](CN)C(=O)Nc3ccc4cnccc4c3)cc2)c(C)c1 [UM0142804:01, Netarsudil (AR-13324)] | 32.51% | – |
| Oc1cc(CNC(=S)/C=C/c2cc(O)c(O)c(Br)c2)cc(O)c1O [UM0142805:01, NT157] | 30.97% | – |
| COc1ccc(Cn2c3ncnc4c(ncn4Cc4ccc(OC)cc4)c-3nc2=O)cc1 [UM0142806:01, RK-33] | 7.723% | – |
| CN(C)CCCOc1ccc(-c2ccc3ncc4c(c3c2)n(C2CCOCC2)c(=O)n4C)cn1 [UM0142808:01, AZD0156] | -0.519% | – |

| Structure (SMILES) | Inh (PKA) [1] | further results |
| --- | --- | --- |
| O=C(O)C(O)C(O)C(=O)O (centres unmarked) [UM0142810:01, Sodium tartrate] | 0.7692% | – |
| c1c[nH]cn1 [UM0142811:01, Imidazole] | 0.004759% | – |
| Nc1ccc(C(=O)O)cc1 [UM0142813:01, 4-Aminobenzoic acid] | -1.147% | – |
| O[C@H]1[C@H](O)[C@@H](O)[C@H](O)[C@@H](O)[C@H]1O [UM0142814:01, myo-Inositol] | -0.9273% | – |
| CCCCCCCCCCCCCC(=S)NCCCC[C@H](NC(=O)OCc1ccccc1)C(=O)Nc1ccccc1 [UM0142815:01, Thiomyristoyl] | -1.991% | – |
| CC(C)(O)c1coc(S(=O)(=O)NC(=O)Nc2c3c(cc4c2CCC4)CCC3)c1 [UM0142816:01, MCC950 sodium] | -1.906% | – |
| Cc1c(CN2CCN(S(C)(=O)=O)CC2)sc2c(N3CCOCC3)nc(-c3cnc(N)nc3)nc12 [UM0142817:01, GNE-477] | 0.346% | – |
| COc1ccc(N(C(=O)Oc2c(C)cccc2C)c2ccnc(Nc3ccc(N4CCN(C)CC4)cc3)n2)c(OC)c1 [UM0142819:01, WH-4-023] | – | Inh (PKA): 37.82% |
| CCCCNc1ncc2c(-c3ccc(CN4CCN(C)CC4)cc3)cn([C@H]3CC[C@H](O)CC3)c2n1 [UM0142820:01, UNC2025] | 23.55% | – |
| CC(C)OC(=O)[C@H](C)N[P@](=O)(CO[C@H](C)Cn1cnc2c(N)ncnc21)Oc1ccccc1 [UM0142821:01, GS-7340] | – | Inh (PKA): 0.4788 |
| CCS(=O)(=O)N1CCN(c2ccc(Nc3ncc(C(N)=O)c(NC4CC4)n3)cc2)CC1 [UM0142822:01, Cerdulatinib (PRT062070)] | 16.29% | – |
| C=C(Cc1ccccc1Cl)C(=O)OCC [UM0142823:01, INF39] | 8.84% | – |
| CC1=C(CSC(=S)N2CCCCC2)C(=O)c2ccccc2C1=O [UM0142824:01, PKM2 inhibitor(compound 3k)] | 18.26% | – |
| N#Cc1cnc(Nc2cc(NC[C@H]3CNCCO3)c(C(F)(F)F)cn2)cn1 [UM0142825:01, CCT245737] | 4.036% | – |
| NS(=O)(=O)c1nn2cc(-c3ccccc3)nc2s1 [UM0142826:01, AEG 3482] | 8.076% | – |
| O=C(c1ccc(Cl)cc1)N(Cc1ccccc1)C1CCCCC1 [UM0142831:01, FPS-ZM1] | 22.08% | – |
| O=C(O)C1=C(CSc2nnnn2CS(=O)(=O)O)CS[C@@H]2[C@H](NC(=O)[C@H](O)c3ccccc3)C(=O)N12 [UM0142832:01, Cefonicid (sodium salt)] | 2.197% | – |
| N[C@@H](CC(=O)N1CCn2c(nnc2C(F)(F)F)C1)Cc1cc(F)c(F)cc1F [UM0142834:01, Sitagliptin (phosphate)] | – | Inh (PKA) (counter-screen for NanoLuc interference, Inh (PKA)): -0.1445% |
| CC(C)=CCCC(C)(O)C1CCC2(C)C1C(O)CC1C3(C)CCC(O)C(C)(C)C3CCC12C (centres unmarked) [UM0142847:01, Protopanaxdiol] | 2.916% | – |
